Values of other authors in US9072718B2, “Burdock fruit extract containing arctigenin and method for producing same” (Kracie Pharma, Ltd., priority 2010, dated 2015).

Legend:
[1] = stated without a test
[2] = test system: pancreas cancer cell line PANC-1; conditions: PANC-1, undernutrition condition; Non-patent document 1

solubility in water [1] | Compound | effect on viability of tumor cells in the undernutrition condition [2]
hardly soluble in water | COc1cc(C[C@H]2C(=O)OC[C@@H]2Cc2ccc(OC)c(OC)c2)ccc1O [arctigenin] | effective
hardly soluble in water | COc1ccc(C[C@H]2COC(=O)[C@@H]2Cc2ccc(O[C@@H]3O[C@H](CO)[C@@H](O)[C@H](O)[C@H]3O)c(OC)c2)cc1OC [arctiin] | –
